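Five concentrations, 48 hours, 96-well plates. Abbreviation: GI50, concentration required for 50% inhibition of growth.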 Active and inactive are the calls of the source. Cut-off read from the data, not from the text of the source: active = GI50 up to about 1.1 µM and inactive = higher.

Some test systems named below: SK-OV-3; SF-539; RXF 393; OVCAR-8; MDA-N; UACC-62; CAKI-1; DU-145; TK-10; SNB-19; OVCAR-4; BT-549; SN12C; PC-3; NCI/ADR-RES; MCF7; T47D; CCRF-CEM; SK-MEL-5; NCI-H226.
Assay in all cases: NCI tumour cell line growth inhibition, 48 h

For the compound `COc1ccc(OC/C(N)=N/NC(=O)c2ccncc2)cc1`, the GI50 in the test with SK-OV-3, in the test with SF-539, in the test on RXF 393, in the test with OVCAR-8, in the test on MDA-N and in the test on UACC-62 was > 100 µM (inactive) in each case. For the same compound, the GI50 with CAKI-1, with DU-145, in the test on TK-10, with SNB-19, in the test on OVCAR-4 and in the test on BT-549 was > 100 µM (inactive) in each case. The GI50 with SN12C, with PC-3, in the test with NCI/ADR-RES, in the test on MCF7, in the test with T47D and in the test with CCRF-CEM was > 100 µM (inactive) throughout.

In the case of `NCCN(CCN(C(=O)Nc1ccccc1)c1ccccc1)C(=O)Nc1ccccc1`, the GI50 with SK-OV-3 is 20 µM (inactive); in the test with RXF 393 it was 14.7 µM (inactive); in the test with OVCAR-8 it was 23 µM (inactive); in the test with SK-MEL-5 it was 18.5 µM (inactive); in the test on MDA-N, 20.3 µM (inactive); in the test with UACC-62, 16.6 µM (inactive). The GI50 is 18.2 µM (inactive) with DU-145; 24.5 µM (inactive) in the test with TK-10; 28.6 µM (inactive) with SNB-19; 22.7 µM (inactive) in the test with BT-549; 23.2 µM (inactive) in the test with SN12C; 32.2 µM (inactive) in the test with NCI-H226. The GI50 with PC-3 was 24.5 µM (inactive); in the test with NCI/ADR-RES, 30.8 µM (inactive); in the test with MCF7, 19.6 µM (inactive); in the test with T47D it was 20.7 µM (inactive); in the test with CCRF-CEM, 41.6 µM (inactive).

Take `Cc1ccc(/C=N/NS(=O)(=O)c2ccc(/C=C3\NC(=O)NC3=O)cc2)cc1`: the GI50 in the test on SK-OV-3 was > 100 µM (inactive); in the test on RXF 393, > 100 µM (inactive); with OVCAR-8, 37.8 µM (inactive); with SK-MEL-5, > 100 µM (inactive); in the test with MDA-N, > 100 µM (inactive); in the test on UACC-62, > 100 µM (inactive). Further, the GI50 was > 100 µM (inactive) in the test on CAKI-1; > 100 µM (inactive) in the test on DU-145; > 100 µM (inactive) with TK-10; 31 µM (inactive) in the test with SNB-19; > 100 µM (inactive) in the test on OVCAR-4; > 100 µM (inactive) with BT-549. The GI50 in the test with SN12C is > 100 µM (inactive); with NCI-H226 it was > 100 µM (inactive); in the test on PC-3, > 100 µM (inactive); in the test on NCI/ADR-RES, 75.7 µM (inactive); with MCF7 it was > 100 µM (inactive); in the test on T47D, > 100 µM (inactive). In addition, the GI50 in the test with CCRF-CEM was > 100 µM (inactive).

For the compound `CC(=O)Nc1ccc2c3c(cc(O)c2c1)N(C(=O)CCCC(=O)Nc1ccc2c4c(cc(O)c2c1)N(C(=O)OC(C)(C)C)CC4CCl)CC3CCl` (stereo not drawn), the GI50 in the test on SK-OV-3 is 1.62 µM (inactive); in the test on SF-539, 1.42 µM (inactive); with RXF 393, 2.58 µM (inactive); with OVCAR-8, 1.94 µM (inactive); with SK-MEL-5, 1.1 µM (active); in the test with MDA-N it was 1.05 µM (active). Further, the GI50 in the test with UACC-62 was 0.998 µM (active); in the test on CAKI-1, > 50 µM (inactive); with DU-145 it was 0.769 µM (active); with TK-10 it was 7.6 µM (inactive); in the test with SNB-19, 1.24 µM (inactive); with OVCAR-4, 1.44 µM (inactive). For the same compound, the GI50 in the test with BT-549 was 0.881 µM (active); in the test with SN12C it was 1.57 µM (inactive); with PC-3, 1.27 µM (inactive); with NCI/ADR-RES, > 50 µM (inactive); with MCF7 it was 0.225 µM (active); with T47D it was 0.418 µM (active). Moreover, the GI50 in the test with CCRF-CEM is 0.108 µM (active).

Regarding `O=C1c2scc(-c3ccccc3)c2-n2cccc21`, the GI50 is 19.3 µM (inactive) in the test on SK-OV-3; 14 µM (inactive) in the test on RXF 393; 13.5 µM (inactive) with OVCAR-8; 15.1 µM (inactive) with SK-MEL-5; 16.1 µM (inactive) in the test with MDA-N; 17.9 µM (inactive) with UACC-62. Besides, the GI50 was 11.4 µM (inactive) with CAKI-1; 26.3 µM (inactive) in the test on DU-145; 49.8 µM (inactive) in the test with TK-10; 15.9 µM (inactive) with SNB-19; 75.9 µM (inactive) in the test with OVCAR-4; 25.9 µM (inactive) in the test with BT-549. The GI50 with SN12C was 29.8 µM (inactive); in the test with NCI-H226, 10.2 µM (inactive); in the test on PC-3, 11.7 µM (inactive); in the test with NCI/ADR-RES, 17.5 µM (inactive); with MCF7 it was 17.3 µM (inactive); in the test with T47D, 17.7 µM (inactive). In the test on CCRF-CEM, the GI50 was 19.7 µM (inactive).

With `O=C(CCc1cc(O)cc(O)c1)NCCc1ccc(O)c(O)c1`, the GI50 in the test with SK-OV-3 is > 100 µM (inactive); with SF-539, > 100 µM (inactive); in the test on RXF 393, > 100 µM (inactive); in the test with OVCAR-8, > 100 µM (inactive); with SK-MEL-5 it was > 100 µM (inactive); in the test with MDA-N it was 36.7 µM (inactive). The GI50 with UACC-62, in the test on CAKI-1, in the test on DU-145, in the test with TK-10, with SNB-19 and in the test on BT-549 was > 100 µM (inactive) in each case. Besides, the GI50 in the test with SN12C, in the test on NCI-H226, with PC-3, in the test on NCI/ADR-RES, in the test with MCF7 and with T47D was > 100 µM (inactive) throughout. Also, the GI50 with CCRF-CEM was 17.3 µM (inactive).

With `COCCc1c(C)c(C#N)c2n(C)c3ccccc3n2c1=O`, the GI50 with SK-OV-3, in the test on SF-539, in the test with RXF 393, with OVCAR-8, in the test on SK-MEL-5 and in the test on MDA-N was > 10 µM (inactive) each time. For the same compound, the GI50 in the test on UACC-62, in the test with CAKI-1, in the test on DU-145, with TK-10, in the test on SNB-19 and in the test on OVCAR-4 was > 10 µM (inactive) each time. Further, the GI50 in the test with BT-549, with SN12C, in the test with NCI-H226, in the test with PC-3, in the test on NCI/ADR-RES and in the test on MCF7 was > 10 µM (inactive) throughout. Besides, the GI50 in the test with T47D is > 10 µM (inactive).

With `Nc1nc(Nc2ccc(Cl)cc2)sc1C(=O)c1cc2ccccc2oc1=O`, the GI50 is 20.7 µM (inactive) in the test on SK-OV-3; 71.6 µM (inactive) with SF-539; 82.6 µM (inactive) with RXF 393; 67.6 µM (inactive) with SK-MEL-5; 37.3 µM (inactive) with MDA-N; 55.8 µM (inactive) with UACC-62. The GI50 in the test on DU-145 is 74.6 µM (inactive); in the test on TK-10, > 100 µM (inactive); in the test on SNB-19 it was > 100 µM (inactive); in the test on OVCAR-4, 27.7 µM (inactive); in the test on BT-549, 28 µM (inactive); with SN12C, 14.2 µM (inactive). Further, the GI50 is > 100 µM (inactive) with NCI-H226; 48.1 µM (inactive) with PC-3; 38.5 µM (inactive) in the test with NCI/ADR-RES; 25 µM (inactive) in the test with MCF7; 27.7 µM (inactive) in the test with T47D; 7.38 µM (inactive) in the test with CCRF-CEM.

The values above are taken from ChEMBL document CHEMBL1201862, “PubChem BioAssay data set” (2004).
